Test results taken from patent publication US11338040B2, “Immunomodulatory compounds” (Leidos, Inc., priority 2020, dated 2022).
Non-standard residues stand in square brackets, D forms with d. Residues, ends and D or L forms follow the SMILES beside them. PEG4 = NCCOCCOCCOCCOCCC(=O)O

Legend:
[1] = target: T1, interaction between LAG3 and MHC-II (Homo sapiens, UniProt P18627); experiment: HTRF (TR-FRET) LAG3/MHC-II binding assay; conditions: for response in dilution curve (HTRF signal): 10-fold dilutions starting at 100 μM or 10 μM, FIGS. 2A-9B; for effect on HTRF signal: tested at 100 μM, 10 μM, and 1 μM, FIG. 1
T1 construct: purchased Cisbio US Inc
T1 sequence (P18627 23-450 limits assumed): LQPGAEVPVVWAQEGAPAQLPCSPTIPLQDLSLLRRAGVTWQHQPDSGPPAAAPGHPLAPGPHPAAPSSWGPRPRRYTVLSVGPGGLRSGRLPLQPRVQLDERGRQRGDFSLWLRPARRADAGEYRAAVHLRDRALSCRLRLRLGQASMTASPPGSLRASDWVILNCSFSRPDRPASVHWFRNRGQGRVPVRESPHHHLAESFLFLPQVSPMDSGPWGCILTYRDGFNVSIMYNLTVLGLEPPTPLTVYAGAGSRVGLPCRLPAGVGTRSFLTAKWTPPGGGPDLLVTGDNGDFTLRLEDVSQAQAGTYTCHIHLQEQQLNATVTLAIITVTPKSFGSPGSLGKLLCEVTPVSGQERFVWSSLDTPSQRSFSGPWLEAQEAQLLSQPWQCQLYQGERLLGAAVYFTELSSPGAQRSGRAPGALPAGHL
From the text: A Homogeneous Time-resolved Fluorescence (HTRF) LAG3/MHC-II binding assay (Cisbio US Inc.) was used to measure the interaction between MHC-II and LAG3 in the presence of various peptides and peptide conjugates. In this assay, the interaction between Tag1-LAG3 and Tag2-MHC-II is detected by using anti-Tag1-Terbium (HTRF donor) and anti-Tag2-XL665 (HTRF acceptor). When the donor and acceptor antibodies are brought into close proximity due to LAG3 and MHC-II binding, excitation of the donor antibody triggers fluorescent resonance energy transfer (FRET) towards the acceptor antibody, which in turn emits specifically at 665 nm. This specific signal is directly proportional to the extent of LAG3/MHC-II interaction. Thus, an agent that blocks the interaction between LAG3 and MHC-II will cause a reduction in HTRF ratio.
Each of peptide conjugates BT1, BT2, BT3, BT4, BT5, BT6, BT7, BT8, BT9, and peptides LG11 (LAG3-11), LAG3-56 (SEQ ID NO:5), and LAG3-42 (SEQ ID NO:6) was tested at 3 concentrations: 100 μM, 10 μM, and 1 μM. The dashed-lines represent the HTRF ratio readout of a control ovalbumin peptide (OVA, SEQ ID NO:7) (baseline) at the respective concentrations.
peptide conjugates and LG peptides were tested in full dilution curves in the LAG3:MHCII TR-FRET Assay described above to estimate IC50. peptide conjugates were tested starting at 100 μM or 10 μM. LG peptides were tested starting at 100 μM.

PD1 = target: T2, PD1 (Homo sapiens, UniProt Q15116); experiment: PD1/PDL1 cell reporter assay (PathHunter, Jurkat PD1/SHP1 EFC cells co-incubated with PDL1-presenting U2OS cells); type: cell-based; conditions: peptide conjugates at 3.6 μM, 10.8 μM, 32.5 μM in triplicate; FIG. 10
T2 construct: expressed in transfected cells; host or cells: Jurkat cells (PD1-EFC and SHP1-EFC) co-cultured with PDL1-presenting U2OS cells
T2 sequence (Q15116 25-288): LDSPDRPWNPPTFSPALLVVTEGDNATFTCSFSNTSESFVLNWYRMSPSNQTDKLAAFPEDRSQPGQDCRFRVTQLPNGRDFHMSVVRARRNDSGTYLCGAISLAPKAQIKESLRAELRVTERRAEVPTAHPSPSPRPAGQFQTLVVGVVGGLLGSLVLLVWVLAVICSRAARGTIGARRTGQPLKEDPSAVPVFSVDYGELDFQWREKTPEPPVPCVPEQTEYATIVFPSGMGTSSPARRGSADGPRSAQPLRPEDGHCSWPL
Protocol: Jurkat cells expressing PD1 and SHP1 proteins, each fused to a fragment of enzyme fragment complementation (EFC) system, were co-incubated with PDL1-presenting U2OS cells. […] Cells in co-culture were incubated at room temperature (RT) for 2 h (PD1 assay). The assay signal was generated using the PathHunter Bioassay Detection kit. Microplates were read following signal generation using a PerkinElmer ENVISION™ instrument for chemiluminescent signal detection. Inhibitory peptides or antibodies added to the culture result in reduction of light signal. The degree of inhibition was calculated using the following formula: Percent inhibition=100%×[1−(mean RLU of test sample−mean RLU of vehicle control)/mean RLU of EC80 control−mean RLU of vehicle control)].
Peptide conjugates BT1-BT11 were tested at three concentrations: 3.6 μM, 10.8 μM, 32.5 μM in triplicate wells. peptide conjugates were dissolved in DMSO and serially diluted in assay buffer. The highest concentration that can be tested in this assay was 32.5 μM peptide conjugate (1% DMSO).
Peptides LD12 (SEQ ID NO:9), LD10 (SEQ ID NO:1), and LD16 (SEQ ID NO:10) were tested at three concentrations: 11 μM, 33 μM, 100 μM in triplicate. LD peptides were dissolved in water and serially diluted in assay buffer. RLUs were measured at the end of the assay, and % Inhibition (% Efficiency) was calculated using the formula above.

[2] = Precipitation on dilution in assay buffer; type: physicochemical; conditions: 100 μM final in assay buffer
Protocol: FIG. 1 is a graph reporting the results of a TR-FRET assay testing the ability of peptide conjugates and individual peptides to affect the interaction between LAG3 and MHC-II. * indicates precipitation when diluted in assay buffer at 1 mM (100 μM final).

Compound	response in dilution curve (HTRF signal) [1]	IC50 ([1]; LAG3:MHCII TR-FRET full dilution curves)	effect on HTRF signal [1]	inhibition of PD1 activity (percent inhibition of light signal) (PD1)	precipitation in assay buffer [2]
CC[C@H](C)[C@H](NC(=O)[C@H](CCC(N)=O)NC(=O)CNC(=O)[C@@H](NC(=O)[C@@H](CO)NC(=O)CCOCCOCCOCCOCCNC(=O)[C@H](Cc1c[nH]c2ccccc12)NC(=O)[C@H](CCC(=O)O)NC(=O)CNC(=O)[C@@H](NC(=O)CNC(=O)[C@H](CCC(N)=O)NC(=O)[C@H](Cc1c[nH]c2ccccc12)NC(=O)[C@H](Cc1c[nH]c2ccccc12)NC(=O)[C@H](CC(=O)O)NC(=O)[C@H](CCC(=O)O)NC(=O)[C@@H]1CCCN1C(=O)[C@H](Cc1c[nH]c2ccccc12)NC(=O)[C@H](Cc1c[nH]cn1)NC(=O)[C@H](CC(C)C)NC(=O)[C@@H]1CCCN1C(=O)[C@H](CCC(=O)O)NC(=O)[C@H](Cc1c[nH]c2ccccc12)NC(=O)[C@@H]1CCCN1C(=O)[C@H](C)NC(=O)[C@@H](N)CO)[C@@H](C)O)[C@@H](C)O)C(=O)N[C@@H](CO)C(=O)N[C@H](C(=O)N[C@@H](CC(C)C)C(=O)N[C@@H](CCCNC(=N)N)C(=O)N[C@H](C(=O)N[C@@H](CC(N)=O)C(=O)N[C@H](C(=O)N[C@H](C(=O)N[C@@H](C)C(=O)N1CCC[C@H]1C(=O)N[C@@H](CC(C)C)C(=O)N[C@@H](CO)C(=O)N[C@@H](CCC(N)=O)C(N)=O)[C@@H](C)O)[C@@H](C)CC)C(C)C)[C@@H](C)O [BT2]	reduced the HTRF signal at 10 μM	8.44 µM	reduced the HTRF signal	did not show inhibition at any of the tested concentrations	precipitation occurred at 100 μM
CC[C@H](C)[C@H](NC(=O)[C@H](CO)NC(=O)[C@@H](NC(=O)[C@H](CC(C)C)NC(=O)[C@H](CCCNC(=N)N)NC(=O)[C@@H](NC(=O)[C@H](CC(N)=O)NC(=O)[C@@H](NC(=O)[C@@H](NC(=O)[C@H](C)NC(=O)[C@@H]1CCCN1C(=O)[C@H](CC(C)C)NC(=O)[C@H](CO)NC(=O)[C@H](CCC(N)=O)NC(=O)CCOCCOCCOCCOCCNC(=O)[C@H](Cc1c[nH]c2ccccc12)NC(=O)[C@H](CCC(=O)O)NC(=O)CNC(=O)[C@@H](NC(=O)CNC(=O)[C@H](CCC(N)=O)NC(=O)[C@H](Cc1c[nH]c2ccccc12)NC(=O)[C@H](Cc1c[nH]c2ccccc12)NC(=O)[C@H](CC(=O)O)NC(=O)[C@H](CCC(=O)O)NC(=O)[C@@H]1CCCN1C(=O)[C@H](Cc1c[nH]c2ccccc12)NC(=O)[C@H](Cc1c[nH]cn1)NC(=O)[C@H](CC(C)C)NC(=O)[C@@H]1CCCN1C(=O)[C@H](CCC(=O)O)NC(=O)[C@H](Cc1c[nH]c2ccccc12)NC(=O)[C@@H]1CCCN1C(=O)[C@H](C)NC(=O)[C@@H](N)CO)[C@@H](C)O)[C@@H](C)O)[C@@H](C)CC)C(C)C)[C@@H](C)O)C(=O)N[C@@H](CCC(N)=O)C(=O)NCC(=O)N[C@H](C(=O)N[C@H](CO)C(N)=O)[C@@H](C)O [BT4] (H-SAPWEPLHWPEDWWQGTGEW[PEG4]QSLPATINVRLTSIQGT[dS]-NH2)	reduced the HTRF signal at 10 μM		reduced the HTRF signal	did not show inhibition at any of the tested concentrations	precipitation occurred at 100 μM
CC[C@H](C)[C@H](NC(=O)[C@H](CO)NC(=O)[C@@H](NC(=O)[C@H](CC(C)C)NC(=O)[C@H](CCCNC(=N)N)NC(=O)[C@@H](NC(=O)[C@H](CC(N)=O)NC(=O)[C@@H](NC(=O)[C@@H](NC(=O)[C@H](C)NC(=O)[C@@H]1CCCN1C(=O)[C@H](CC(C)C)NC(=O)[C@H](CO)NC(=O)[C@H](CCC(N)=O)NC(=O)CCOCCOCCOCCOCCNC(=O)[C@H](CO)NC(=O)[C@H](C)NC(=O)[C@@H]1CCCN1C(=O)[C@H](Cc1c[nH]c2ccccc12)NC(=O)[C@H](CCC(=O)O)NC(=O)[C@@H]1CCCN1C(=O)[C@H](CC(C)C)NC(=O)[C@H](Cc1c[nH]cn1)NC(=O)[C@H](Cc1c[nH]c2ccccc12)NC(=O)[C@@H]1CCCN1C(=O)[C@H](CCC(=O)O)NC(=O)[C@H](CC(=O)O)NC(=O)[C@H](Cc1c[nH]c2ccccc12)NC(=O)[C@H](Cc1c[nH]c2ccccc12)NC(=O)[C@H](CCC(N)=O)NC(=O)CNC(=O)[C@@H](NC(=O)CNC(=O)[C@H](CCC(=O)O)NC(=O)[C@@H](N)Cc1c[nH]c2ccccc12)[C@@H](C)O)[C@@H](C)O)[C@@H](C)CC)C(C)C)[C@@H](C)O)C(=O)N[C@@H](CCC(N)=O)C(=O)NCC(=O)N[C@H](C(=O)N[C@H](CO)C(N)=O)[C@@H](C)O [BT5] (H-WEGTGQWWDEPWHLPEWPAS[PEG4]QSLPATINVRLTSIQGT[dS]-NH2)	reduced the HTRF signal at 10 μM		reduced the HTRF signal	did not show inhibition at any of the tested concentrations	precipitation occurred at 100 μM
H2N-(dS)TGQISTLRVNITAPLSQ^1-PEG4-SAPWEPLHWPEDWWQGTGEW^3-amide [BT1]	reduced the HTRF signal at 10 μM		reduced the HTRF signal	did not show inhibition at any of the tested concentrations	precipitation occurred at 100 μM
